Patent publication US8067620B2, “Dispiro 1,2,4-trioxolane antimalarials” (Medicines for Malaria Venture MMV, priority 2005, dated 2011)

Experiments:
[1] = Blood stability studies in freshly collected rat blood; format: in vitro ADME; set-up: unit not given here
Procedure: Blood stability studies: Compounds were incubated at 37° C. in freshly collected rat blood. At selected time points, duplicate aliquots of the whole blood were sampled, centrifuged and the plasma assayed for parent compound by LC-MS.

[2] = Pharmacokinetic studies in rats (oral); format: in vivo, rat; conditions: oral 10 mg/kg; for Oral Bioavailability at 10 mg/kg (%): relative to an IV dose
Procedure: Pharmacokinetic studies in rats: Compounds were administered orally to rats (n=2) at a dose of 10 mg/kg in a suspension formulation containing hydroxypropylmethyl cellulose, Tween 80, benzyl alcohol, and water. […] Oral bioavailability for each compound was calculated relative to an IV dose for each compound in a suitable vehicle.

P. berghei = assay: Prophylactic activity against P. berghei in vivo (mice dosed before infection); conditions: for Cures 24 h prior to infection (30 mg/kg) / Activity (%) 24 h prior to infection (30 mg/kg): single 30 mg/kg oral dose 24 h prior to infection; for Cures 24 h prior to infection (30 mg/kg) / Cures 48 h prior to infection (100 mg/kg) / Cures 72 h prior to infection (100 mg/kg) / Cures 96 h prior to infection (100 mg/kg): n=5 mice; for Activity (%) 24 h prior to infection (30 mg/kg) / Activity (%) 48 h prior to infection (100 mg/kg): parasitemia day 3 post-infection; for Cures 48 h prior to infection (100 mg/kg) / Activity (%) 48 h prior to infection (100 mg/kg): single 100 mg/kg oral dose 48 h prior to infection; for Activity (%) 72 h prior to infection (100 mg/kg) / Cures 72 h prior to infection (100 mg/kg): single 100 mg/kg oral dose 72 h prior to infection; for Activity (%) 96 h prior to infection (100 mg/kg) / Cures 96 h prior to infection (100 mg/kg): single 100 mg/kg oral dose 96 h prior to infection
Procedure: All groups (n=5 mice per group) including an untreated control group, were infected at the same time and parasitemia was determined for each animal on day 3 post-infection and compared with the level of parasitemia in control animals.

[3] = tested on: ANKA strain of P. berghei; assay: Single dose in vivo screen in P. berghei-infected NMRI mice; conditions: for Survival (days) 30 mg/kg SSV po / Activity (%) 30 mg/kg SSV po: single 30 mg/kg po dose in SSV one day post-infection; for Activity (%) 30 mg/kg SSV po: percent reduction in parasitemia on day three post-infection; for Cures 30 mg/kg SSV po: single 30 mg/kg po dose in SSV, cure = survival to day 30 post-infection, groups of five mice
Procedure: Activity of 1,2,4-trioxolanes against P. berghei in vivo. In the single dose in vivo screen, NMRI mice infected with the ANKA strain of P. berghei (groups of five mice) were treated one day post-infection with trioxolanes dissolved or suspended in standard suspending vehicle (SSV). The SSV consists of either 0.5% w/v carboxymethyl cellulose, 0.5% v/v benzyl alcohol, 0.4% v/v Tween 80, and 0.9% w/v sodium chloride in water or 0.5% hydroxypropylmethylcellulose 0.4% v/s Tween 80, and 0.5% v/v benzyl alcohol in water. […] Antimalarial activity was measured by percent reduction in parasitemia on day three post-infection and survival times compared to an untreated control group. Survival to day 30 post-infection is considered to be a cure in this model.

[4] = tested on: Embryonic red blood cells (RBCs); assay: Rat whole embryo culture (WEC) model, embryotoxicity
Excerpt: Embryonic red blood cells (RBCs) were the primary target leading to anemia and subsequent hypoxia in embryonic tissues.
Longo, M.; Zanoncelli, S.; Manera, D.; Brughera, M.; Colombo, P.; Lansen J.; Mazué, G.; Gomes, M.; Taylor W. R. J.; Olliaro, P. Effects of the Antimalarial Drug Dihydroartemisinin (DHA) on Rat Embryos In Vitro. Repro. Tox. 2006, 21, 83-93.

SMILES | Stability in Rat Blood (t1/2) at 37° C. [1] | Oral Bioavailability at 10 mg/kg (%) [2] | Cures 24 h prior to infection (30 mg/kg) (P. berghei) | Activity (%) 24 h prior to infection (30 mg/kg) (P. berghei) | Cures 48 h prior to infection (100 mg/kg) (P. berghei) | Activity (%) 48 h prior to infection (100 mg/kg) (P. berghei) | Survival (days) 30 mg/kg SSV po [3] | Activity (%) 30 mg/kg SSV po [3] | Cures 30 mg/kg SSV po [3] | further results
NC[C@H]1CC[C@]2(CC1)OOC1(O2)C2CC3CC(C2)CC1C3 (stereo partly shown) [OZ209, reference compound] | 0.8 | 12% |  |  |  |  |  |  |  | In Vivo Oral t1/2 at 10 mg/kg [2]: 1.2 h
OC1CCN(CCOc2ccc([C@H]3CC[C@]4(CC3)OOC3(O4)C4CC5CC(C4)CC3C5)cc2)CC1 (stereo partly shown) [OZ513] |  |  | 1/5 | 99.9% | 5/5 | 99.7% |  |  |  | 
CC(C)(O)CNCCCOc1ccc([C@H]2CC[C@]3(CC2)OOC2(O3)C3CC4CC(C3)CC2C4)cc1.Cc1ccc(S(=O)(=O)O)cc1 (stereo partly shown) [OZ505] |  |  | 2/5 | >99.9% | 5/5 | 99.5% |  |  |  | 
CS(=O)(=O)O.c1cc([C@H]2CC[C@]3(CC2)OOC2(O3)C3CC4CC(C3)CC2C4)ccc1OC1CCNCC1 (stereo partly shown) [OZ429] | 5.5 | 73% | 2/5 | 99.8% | 5/5 | 99.8% | 27.8 days | 99.97% | 4/5 | In Vivo Oral t1/2 at 10 mg/kg [2]: 5.3 h
CS(=O)(=O)N1CCN(CCCOc2ccc([C@H]3CC[C@]4(CC3)OOC3(O4)C4CC5CC(C4)CC3C5)cc2)CC1.Cc1ccc(S(=O)(=O)O)cc1 (stereo partly shown) [OZ482] | >17 | 100% | 3/5 | >99.9% | 5/5 | >99.9% |  |  |  | Activity (%) 72 h prior to infection (100 mg/kg) (P. berghei): 99.6%; Cures 72 h prior to infection (100 mg/kg) (P. berghei): 4/5; Activity (%) 96 h prior to infection (100 mg/kg) (P. berghei): 99.6%; Cures 96 h prior to infection (100 mg/kg) (P. berghei): 3/5; In Vivo Oral t1/2 at 10 mg/kg [2]: 9.6 h
C[C@@H]1CC[C@H]2[C@@H](C)C(=O)O[C@@H]3O[C@@]4(C)CC[C@@H]1[C@]32OO4 [artemisinin] |  |  |  |  |  |  |  |  |  | NOAEL for embryonic RBCs [4]: 0.1 µg/mL
CC(C)(CN)Oc1ccc(C2CCC3(CC2)OOC2(O3)C3CC4CC(C3)CC2C4)cc1.CS(=O)(=O)O (stereo not shown) [OZ453] | 6.1 |  | 0/5 | 99.9% | 5/5 | 99.7% |  |  |  | 
CC(C)(N)CCOc1ccc(C2CCC3(CC2)OOC2(O3)C3CC4CC(C3)CC2C4)cc1.Cc1ccc(S(=O)(=O)O)cc1 (stereo not shown) [OZ539] |  |  | 4/5 | >99.9% | 5/5 | >99.9% | 25.2 days | 99.7% | 3/5 | Malaria-curative with a single dose ([3]; single dose, dose not stated): malaria-curative in some instances with a single dose
O[C@H]1CC[C@@H](C2CCC3(CC2)OOC2(O3)C3CC4CC(C3)CC2C4)CC1 (stereo partly shown) [OZ508] |  |  | 4/5 | 99.7% | 4/5 | 99.8% | 24.4 days | 99.8% | 3/5 | 
CS(=O)(=O)O.c1cc(C2CCC3(CC2)OOC2(O3)C3CC4CC(C3)CC2C4)ccc1OCCN1CCSCC1 (stereo not shown) [OZ460] |  |  | 3/5 | 99.8% | 5/5 | 99.6% | 25.0 days | 99% | 3/5 | 
CS(=O)(=O)O.c1cc(C2CCC3(CC2)OOC2(O3)C3CC4CC(C3)CC2C4)ccc1OCCN1CCOCC1 (stereo not shown) [OZ439] |  | 94% | 5/5 | 99.8% | 5/5 | 99.6% |  |  |  | Activity (%) 72 h prior to infection (100 mg/kg) (P. berghei): 99.6%; Cures 72 h prior to infection (100 mg/kg) (P. berghei): 5/5; Activity (%) 96 h prior to infection (100 mg/kg) (P. berghei): 99.5%; Cures 96 h prior to infection (100 mg/kg) (P. berghei): 5/5; NOAEL for embryonic RBCs [4]: 5 µg/mL
CS(=O)(=O)O.NC1CCC(Oc2ccc(C3CCC4(CC3)OOC3(O4)C4CC5CC(C4)CC3C5)cc2)CC1 (stereo not shown) [OZ537] | >17 |  | 5/5 | >99.9% | 5/5 | >99.9% |  |  |  | In Vivo Oral t1/2 at 10 mg/kg ([2]; 10 mg/kg): 11.8 h; Oral Bioavailability at 10 mg/kg (%) ([2]; 10 mg/kg): 29%
C[C@H]1[C@@H](O)O[C@@H]2O[C@@]3(C)CC[C@H]4[C@H](C)CC[C@@H]1[C@@]24OO3 [dihydroartemisinin] |  |  |  |  |  |  |  |  |  | NOAEL for embryonic RBCs [4]: 0.01 µg/mL
Cc1ccc(S(=O)(=O)O)cc1.O[C@H]1CC[C@H](NCCCOc2ccc([C@H]3CC[C@]4(CC3)OOC3(O4)C4CC5CC(C4)CC3C5)cc2)CC1 (stereo partly shown) [OZ535] |  |  | 0/5 | >99.9% | 5/5 | >99.9% |  |  |  | 
CS(=O)(=O)N1CCN(CCOc2ccc([C@H]3CC[C@]4(CC3)OOC3(O4)C4CC5CC(C4)CC3C5)cc2)CC1.CS(=O)(=O)O (stereo partly shown) [OZ485] |  |  | 3/5 | >99.9% | 5/5 | >99.9% |  |  |  | 
NCCOc1ccc([C@H]2CC[C@]3(CC2)OO[C@]2(O3)C3CC4CC(C3)CC2C4)cc1 [OZ323, reference compound] | 7.7 | 100% | 0/5 | 99.7% | 5/5 | 99.5% |  |  |  | Activity (%) 72 h prior to infection (100 mg/kg) (P. berghei): >99.9%; Cures 72 h prior to infection (100 mg/kg) (P. berghei): 1/5; Activity (%) 96 h prior to infection (100 mg/kg) (P. berghei): 90%; Cures 96 h prior to infection (100 mg/kg) (P. berghei): 0/5; In Vivo Oral t1/2 at 10 mg/kg [2]: 5.2 h
CS(=O)(=O)O.c1cc([C@H]2CC[C@]3(CC2)OOC2(O3)C3CC4CC(C3)CC2C4)ccc1OCCCN1CCOCC1 (stereo partly shown) [OZ461] |  | 71% | 5/5 | 99.9% | 5/5 | 99.7% |  |  |  | Activity (%) 72 h prior to infection (100 mg/kg) (P. berghei): 99.6%; Cures 72 h prior to infection (100 mg/kg) (P. berghei): 5/5; Activity (%) 96 h prior to infection (100 mg/kg) (P. berghei): 99.4%; Cures 96 h prior to infection (100 mg/kg) (P. berghei): 4/5
C[C@H]1[C@H](OC(=O)CCC(=O)O)O[C@@H]2O[C@@]3(C)CC[C@H]4[C@H](C)CC[C@@H]1[C@@]24OO3 [AS, artesunate, reference compound] |  |  | 0/5 | 21% | 0/5 | 0% | 9.0 days | 92% | 0/5 | 
O=C1CCC([C@H]2CC[C@]3(CC2)OOC2(O3)C3CC4CC(C3)CC2C4)CC1 (stereo partly shown) [OZ495] |  |  | 1/5 | >99.9% | 0/5 | >99.9% | 26.8 days | 99.3% | 3/5 | 
CS(=O)(=O)O.NCCCCCOc1ccc(C2CCC3(CC2)OOC2(O3)C3CC4CC(C3)CC2C4)cc1 (stereo not shown) [OZ498] |  |  | 4/5 | 99.8% | 5/5 | 99.8% |  |  |  | 
